Entries after “also recorded” stand apart in the source; their conditions may differ.
Columns and labels:
[1] = system: SLFN11 expression in Kasumi cells; assay: Flow cytometry of total SLFN11 in Kasumi cells after long-term treatment; format: cell-based, human; conditions: 2.5 μM
Experimental: (§1) Live cells were centrifuged at 300 g for 5 minutes, washed once with PBS and centrifuged again. Cells were then fixed in 4% PFA in PBS for 10 minutes at 37° C., and resuspended in PBS. Unless processed immediately, samples were at this point stored in PBS at 4° C. (up to three weeks) or at −80° C. (for long-term storage). If intracellular epitopes were stained, cells were permebealized in 90% MeOH for 30 minutes on ice. Unless processed immediately, samples were also be stored in 90% MeOH at −20° C. for up to two months.
(§2) Cells (150-200 000 per sample) were washed 1× in PBS and incubated in blocking buffer; (PBS+0.5% BSA) for 15 minutes at room temperature. Thereafter, cells were incubated with primary mouse-anti-human SLFN11 Ab at the indicated dilutions in incubation buffer (IB, PBS+0.5% BSA) for 1 hour at room temperature. Cells were then washed 3× with IB and incubated with secondary AB (conjugated to a fluorescent flurophore) at 1:1000 dilution in IB for 30 minutes at room temperature. Finally, cells were washed 3× in IB and resuspended in PBS. For costaining experiments, cells were subsequently incubated with mouse-anti-human Axl Ab (1H12-A647 conjugated Ab) diluted 1:3000 in IB. Cells were analyzed immediately, or stored for up to 24 hours at 4° C. before analysis. […]

[2] = system: Slfn11 expression in MOLM-13 cells; assay: Flow cytometry of Slfn11 expression in MOLM-13 cells after treatment; format: cell-based, human
Experimental: as §1
Cells (150-200 000 per sample) were washed 1× in PBS and incubated in blocking buffer; (PBS+0.5% BSA) for 15 minutes at room temperature. Thereafter, cells were incubated with primary mouse-anti-human SLFN11 Ab at the indicated dilutions in incubation buffer (IB, PBS+0.5% BSA) for 1 hour at room temperature. Cells were then washed 3× with IB and incubated with secondary AB (conjugated to a fluorescent flurophore) at 1:1000 dilution in IB for 30 minutes at room temperature. Finally, cells were washed 3× in IB and resuspended in PBS. For costaining experiments, cells were subsequently incubated with mouse-anti-human Axl Ab (1H12-A647 conjugated Ab) diluted 1:3000 in IB. Cells were analyzed immediately, or stored for up to 24 hours at 4° C. before analysis.
Analysis of cells was done on a BD LSR Fortessa or a BD C6 Accuri flow cytometer, and further processing was done using FlowJo v.7.6.

[3] = system: pAkt; assay: MOLM13 systemic xenograft model: biomarker flow cytometry in CD33-positive cells, pAkt; format: in vivo, mice; conditions: 50 mg/kg for 4 days
Experimental: (§3) Material from an in vivo MOLM13 systemic model was also evaluated by flow cytometry. Expression of the previously evaluated biomarkers was examined in cells isolated from bone marrows and spleens of animals with systemic AML disease (MOLM13, inoculated for 7 days prior to treatment) treated with BGB324 at 50 mg/kg for 4 days.
(§4) Cells isolated from spleens and bone marrows were assessed for phosphorylation of Erk, PLCγ1 and Akt, and expression of PHGDH and SLFN11. The samples were also co-stained with CD33, and biomarker expression was only evaluated in CD33-positive cells.

[4] = system: pPLCγ1; assay: MOLM13 systemic xenograft model: biomarker flow cytometry in CD33-positive cells, pPLCγ1; format: in vivo, mice; conditions: 50 mg/kg for 4 days
Experimental: as §3, §4

[5] = system: SLFN11 transcript; assay: Microarray analysis of spleen RNA, systemic MOLM13 AML model (study 3); format: in vivo, NSG mice; conditions: study 3, systemic MOLM13, 25 or 50 mg/kg QD, 14 days
Experimental: (§5) To identify new potential biomarkers of BGB324 efficacy in AML, microarray analyses of tumor material from several AML studies were performed. In the first two studies, NOD/SCID mice were implanted with subcutaneous Mv4-11 xenografts. In study 1 the mice were treated with control (vehicle) or a single dose of BGB324 (50 or 100 mg/kg), and sacrificed after 24 hours. In study 2 the mice were treated BID for 14 days with control (vehicle), low (25 mg/kg) or high (50 mg/kg) dose of BGB324 for 14 days. In a third study, MOLM13 cells were injected intravenously into the tail vein of NSG mice. After three days of inoculation, the animals were treated with control (vehicle), high (50 mg/kg) or low (25 mg/kg) dose of BGB324 QD until the vehicle-treated animals were moribund (14 days after initiation of treatment). Development of leukemia was confirmed by flow cytometric analyses of human CD33/CD45-positive cells in the blood, spleens and bone marrow, and RNA isolated from spleens were sent for microarray analysis.

[6] = system: SLFN11 expression in OCI-AML5 cells; assay: Flow cytometry of total SLFN11 in OCI-AML5 cells after long-term treatment; format: cell-based, human; conditions: OCI-AML5, 2.5 μM
Experimental: as §1, §2

[7] = system: SLFN11 expression in Mv4-11 cells; assay: Flow cytometry of total SLFN11 in Mv4-11 cells after long-term treatment; format: cell-based, human
Experimental: as §1, §2

[8] = system: Slfn11 protein; assay: Western blot of MV4-11 subcutaneous tumor xenograft lysates; format: in vivo, mice; conditions: MV4-11 xenografts
Experimental: (§6) For western blot analysis, cells were lysed on ice using NP-40 lysis buffer with protease- and phosphatase inhibitors. Total protein concentration in lysates was measured using a BCA protein assay kit following the manufacturers instructions. 10% NuPAGE® Bis-Tris precast gels were loaded with 30-50 μg of protein in each well diluted in sample buffer and antioxidant. A 1:1 mix of MagicMark™ XP Western Protein Standard (Invitrogen) and SeeBlue® Plus 2 Pre-Stained Standard was used as protein standard. Gels were run at 50V for 20 min, then at 100V for 1 h30 min. Blotting was done on ice for 1 h 30 min at 100V onto PVDF (pre-activated with MeOH) or nitrocellulose membranes. Membranes were washed in TBS-0.1% Tween-20 (TBS-T), and blocked in TBS-T 5% BSA for at least 1 h at RT. Primary antibody was added at 1:1000 in TBS-T 5% BSA (rabbit-anti-actin Ab was added at 1:2000, rabbit anti-GAPDH Ab was added at 1:3000) in TBS-T 5% BSA, and membranes were incubated over night at 4° C. Membranes were then washed 3× in TBS-T, and incubated in HRP-conjugated secondary antibody at 1:5000 dilution in TBS-T 5% milk for 45 min at RT. Membranes were developed for 1 min using ECL-reagents and imaged with chemiluminescence using a Molecular Imager ChemiDoc™ XRS (BioRad).
In these studies, mice had been treated with BGB324 25 mg/kg BID and 50 mg/kg BID 2-5 cycle for 14 days, or with a single dose 100 mg/kg (tumors harvested 6 h after treatment).
Since Slfn11 was reduced in only one of two parallel tumor samples after a single treatment, it was decided to examine more lysates from Study 1 by western blot. In this study, mice with subcutaneous MV4-11 tumor xenografts were treated with a single low (50 mg/kg) or high (100 mg/kg) dose of BGB324, and tumors were harvested at different time points, from 4 hours up to 72 hours after treatment. […] Thus, it appears that Slfn11 is reduced in MV4-11 xenografts within 24-72 hours (depending on the drug concentration) after treatment with a single dose of BGB324. The effect of BGB324 on Slfn11 expression in these tumors appears to be long-lasting, as the protein level stays low 72 hours after treatment. However, there appear to be individual differences, and more than two parallel samples of each time point need to be examined in order to better understand the dynamics of Slfn11 reduction in MV4-11 xenografts after BGB324-treatment.

[9] = system: Slfn11 expression in OCI-M1 cells; assay: Flow cytometry of Slfn11 expression in OCI-M1 cells after treatment; format: cell-based, human; conditions: OCI-M1, treated at IC50-values for 24, 48 and 72 hours
Experimental: as §1, §2

[10] = system: PHGDH; assay: MOLM13 systemic xenograft model: biomarker flow cytometry in CD33-positive cells, PHGDH; format: in vivo, mice; conditions: 50 mg/kg for 4 days
Experimental: as §3, §4

[11] = system: Slfn11 expression in OCI-AML3 cells; assay: Flow cytometry of Slfn11 expression in OCI-AML3 cells after treatment; format: cell-based, human; conditions: OCI-AML3, treated at IC50-values for 24, 48 and 72 hours
Experimental: as §1, §2

[12] = system: pErk; assay: MOLM13 systemic xenograft model: biomarker flow cytometry in CD33-positive cells, pErk; format: in vivo, mice; conditions: 50 mg/kg for 4 days
Experimental: as §3, §4

[13] = system: MOLM13 leukemic cells (CD33/CD45-positive); assay: MOLM13 systemic xenograft model: CD33/CD45-positive leukemic cells by flow cytometry; format: in vivo, mice; conditions: 50 mg/kg for 4 days
Experimental: as §3
Cells harvested from spleens, blood and bone marrows of the animals were stained with anti CD33 and CD45 antibodies, to determine if systemic disease was established. CD33/CD45-positive cells were identified in spleens (around 10-15%), bone marrows (35-40%) and in the blood (2-6%) of the animals, confirming that the disease was established.

[14] = system: SLFN11 transcript; assay: Microarray analysis of subcutaneous Mv4-11 xenograft tumors (study 1 and study 2); format: in vivo, NOD/SCID mice; conditions: for downregulation of SLFN11 transcript (Rank Product Analysis): study 2, Mv4-11 xenografts, vs control
Experimental: as §5
One of the most interesting hits from a Rank Product Analysis of study 2 was a transcript called SLFN11.

[15] = system: Slfn11 expression in MOLM-13 cells; assay: Western blot of Slfn11 in MOLM-13 cells, increasing doses; format: cell-based, human; conditions: MOLM-13, 48 hours, increasing doses 0.1 uM to 1.2 uM
Experimental: as §6

[16] = system: SLFN11; assay: MOLM13 systemic xenograft model: biomarker flow cytometry in CD33-positive cells, SLFN11; format: in vivo, mice; conditions: bone marrows, 50 mg/kg for 4 days
Experimental: as §3, §4

Nc1nc(Nc2ccc3c(c2)CC[C@@H](N2CCCC2)CC3)nn1-c1cc2c(nn1)-c1ccccc1CCC2 [BGB324]
total protein expression of SLFN11 (flow cytometry, % of control) ([1]; 24 and 48 hours): no significant differences
total protein expression of SLFN11 (flow cytometry, % of control) ([1]; 72 hours): significant increase
total protein expression of SLFN11 (flow cytometry, % of control) ([2]; MOLM13, 0.3 μM, 24, 48 and 72 hours): significant reduction
SLFN11 expression (flow cytometry) ([2]; MOLM-13, 48 hours, increasing doses 0.1 uM to 1.2 uM): dose-dependent downregulation; also recorded: confirmed
SLFN11 expression (flow cytometry) ([2]; MOLM-13, treated at IC50-values for 24, 48 and 72 hours): marked reduction
pAkt change in CD33-positive cells ([3]; bone marrows): not significant
pAkt change in CD33-positive cells ([3]; spleens): not significant
pPLCγ1 in CD33-positive cells ([4]; bone marrows): significant reduction
pPLCγ1 in CD33-positive cells ([4]; spleens): significant reduction
SLFN11 transcript regulation in spleens [5]: not among the transcripts that were significantly downregulated
total protein expression of SLFN11 (flow cytometry, % of control) ([6]; 24 and 48 hours): no significant differences
total protein expression of SLFN11 (flow cytometry, % of control) ([6]; 72 hours): significant increase
total protein expression of SLFN11 (flow cytometry, % of control) ([7]; Mv4-11, 0.1 uM, 72 hours): significantly reduced
total protein expression of SLFN11 (flow cytometry, % of control) ([7]; Mv4-11, 0.3 μM, 24, 48 and 72 hours): significant reduction
Slfn11 protein compared to control levels (western blot) ([8]; 25 mg/kg BID and 50 mg/kg BID, 14 days): marked reduction
Slfn11 protein (western blot) ([8]; single dose 100 mg/kg, tumors harvested 6 h after treatment): reduced in one of the two parallel samples
duration of effect on Slfn11 protein level ([8]; single dose, 72 hours after treatment): stays low
time after single dose within which Slfn11 is reduced ([8]; single dose, depending on the drug concentration): 24 to 72 h
Slfn11 protein (western blot) ([8]; single high dose 100 mg/kg, 24, 48 and 72 hours after treatment): reduction
Slfn11 protein (western blot) ([8]; single high dose 100 mg/kg, time points earlier than 24 hours (from 4 hours)): not at earlier time points
Slfn11 protein (western blot) ([8]; single low dose 50 mg/kg, 72 hours after treatment): slight reduction
SLFN11 expression (flow cytometry) [9]: marked reduction
PHGDH expression in CD33-positive cells ([10]; bone marrows): significant reduction
PHGDH expression in CD33-positive cells ([10]; spleens): significant reduction
SLFN11 expression (flow cytometry) [11]: marked reduction
pErk in CD33-positive cells ([12]; bone marrows): significant reduction
pErk in CD33-positive cells ([12]; spleens): significant reduction
percentage of leukemic cells (CD33/CD45-positive) vs. vehicle-treated ([13]; blood): significantly higher percentage
percentage of leukemic cells (CD33/CD45-positive) vs. vehicle-treated ([13]; bone marrows): no significant differences
percentage of leukemic cells (CD33/CD45-positive) vs. vehicle-treated ([13]; spleens): no significant differences
reduction of SLFN11 transcript (Rank Product Analysis) ([14]; study 1, Mv4-11 xenografts, single dose (50 or 100 mg/kg), sacrificed after 24 hours): 1.449 fold
SLFN11 transcript regulation after 14d treatment (in words) ([14]; study 2, 25 and 50 mg/kg): highly significant dose-dependent downregulation
SLFN11 transcript, SAM (significance of microarray) analysis ([14]; study 2, 14 d treatment, q=0.0): reduction of SLFN11 as the most significant (#1) hit
downregulation of SLFN11 transcript (Rank Product Analysis) ([14]; 25 mg/kg BID for 14 days): 1.98 fold
downregulation of SLFN11 transcript (Rank Product Analysis) ([14]; 50 mg/kg BID for 14 days): 3.98 fold
Slfn11 expression (western blot) [15]: dose-dependent downregulation; also recorded: dose-dependent reduction
Slfn11 expression (western blot) ([15]; listed as BGB324/R428): reduced in a dose-dependent manner
SLFN11 expression in CD33-positive cells [16]: significant reduction

— patent US20170314077A1, “SLFN11 AS BIOMARKER FOR AML” (BERGENBIO AS, priority 2014, published 2017)
